ChEMBL document CHEMBL3885881, “DrugMatrix”

Species: Rattus norvegicus
Test: DrugMatrix - Regimen: Daily Repeat
Type: toxicity, organism-based, Sprague-Dawley
Set-up: regimen Daily Repeat, gender Male, age 6-8 weeks
Conditions: in vivo, iv, vehicle 100 % SALINE; for ABSOLUTE BASOPHIL / ABSOLUTE EOSINOPHIL / ABSOLUTE LYMPHOCYTE / ABSOLUTE MONOCYTE / ABSOLUTE SEGMENTED NEUTROPHIL / BASOPHIL / EOSINOPHIL / ERYTHROCYTE COUNT / HEMATOCRIT / HEMOGLOBIN / LEUKOCYTE COUNT / LYMPHOCYTE / MEAN CORPUSCULAR HEMOGLOBIN / MEAN CORPUSCULAR HEMOGLOBIN CONCENTRATION / MEAN CORPUSCULAR VOLUME / MONOCYTE / NEUTROPHIL / NUCLEATED RED BLOOD CELLS / PLATELET COUNT: tissue Blood; for ALANINE AMINOTRANSFERASE / ALBUMIN / ALKALINE PHOSPHATASE / ASPARTATE AMINOTRANSFERASE / BLOOD UREA NITROGEN / CARBON DIOXIDE / CHLORIDE / CHOLESTEROL / CREATINE PHOSPHOKINASE / CREATININE / GLUCOSE / LACTATE DEHYDROGENASE / LIPASE / PHOSPHORUS / POTASSIUM / SODIUM / TOTAL BILIRUBIN / TOTAL PROTEIN / URIC ACID: tissue Plasma
[1] = 0.005 mg/kg, 120 h, dose level Low, time 5 day
[2] = 0.05 mg/kg, 72 h, dose level High, time 3 day
[3] = 0.05 mg/kg, 120 h, dose level High, time 5 day

## CC(=O)O[C@H]1C[C@@H]2CC[C@@H]3[C@H](CC[C@@]4(C)[C@H]3C[C@H]([N+]3(C)CCCCC3)[C@@H]4OC(C)=O)[C@@]2(C)C[C@@H]1N1CCCCC1.[Br-] [VECURONIUM BROMIDE]
[1]
  ABSOLUTE BASOPHIL: 0 CELLS/uL
  ABSOLUTE EOSINOPHIL: 82.33 CELLS/uL
  ABSOLUTE LYMPHOCYTE: 12022.67 CELLS/uL
  ABSOLUTE MONOCYTE: 265.33 CELLS/uL
  ABSOLUTE SEGMENTED NEUTROPHIL: 796.33 CELLS/uL
  BASOPHIL: 0%
  EOSINOPHIL: 0.67%
  ERYTHROCYTE COUNT: 5.48 x10E6/uL
  HEMATOCRIT: 34.87%
  HEMOGLOBIN: 13.83 G/DL
  LEUKOCYTE COUNT: 13.17 x10E3/uL
  LYMPHOCYTE: 91%
  MEAN CORPUSCULAR HEMOGLOBIN: 25.23 pg
  MEAN CORPUSCULAR HEMOGLOBIN CONCENTRATION: 39.7 G/DL
  MEAN CORPUSCULAR VOLUME: 63.63 fL
  MONOCYTE: 2%
  NEUTROPHIL: 6.33%
  NUCLEATED RED BLOOD CELLS: 0 /100WBC
  PLATELET COUNT: 1117 x10E3/uL
  ALANINE AMINOTRANSFERASE: 68.67 u/L
  ALBUMIN: 4.17 G/DL
  ALKALINE PHOSPHATASE: 419 u/L
  ASPARTATE AMINOTRANSFERASE: 85 u/L
  BLOOD UREA NITROGEN: 19.33 mg/dL
  CARBON DIOXIDE: 30 mmol/L
  CHLORIDE: 101.33 MEQ/L
  CHOLESTEROL: 79 mg/dL
  CREATINE PHOSPHOKINASE: 251.67 u/L
  CREATININE: 0.25 mg/dL
  GLUCOSE: 172 mg/dL
  LACTATE DEHYDROGENASE: 116.67 u/L
  LIPASE: 10.33 u/L
  PHOSPHORUS: 12 mg/dL
  POTASSIUM: 5.82 MEQ/L
  SODIUM: 144.07 MEQ/L
  TOTAL BILIRUBIN: 0.2 mg/dL
  TOTAL PROTEIN: 5.9 G/DL
  URIC ACID: 1.27 mg/dL
[2]
  ABSOLUTE BASOPHIL: 0 CELLS/uL
  ABSOLUTE EOSINOPHIL: 0 CELLS/uL
  ABSOLUTE LYMPHOCYTE: 14697.33 CELLS/uL
  ABSOLUTE MONOCYTE: 387 CELLS/uL
  ABSOLUTE SEGMENTED NEUTROPHIL: 1049 CELLS/uL
  BASOPHIL: 0%
  EOSINOPHIL: 0%
  ERYTHROCYTE COUNT: 5.35 x10E6/uL
  HEMATOCRIT: 33.93%
  HEMOGLOBIN: 13.67 G/DL
  LEUKOCYTE COUNT: 16.13 x10E3/uL
  LYMPHOCYTE: 91.33%
  MEAN CORPUSCULAR HEMOGLOBIN: 25.53 pg
  MEAN CORPUSCULAR HEMOGLOBIN CONCENTRATION: 40.27 G/DL
  MEAN CORPUSCULAR VOLUME: 63.37 fL
  MONOCYTE: 2.33%
  NEUTROPHIL: 6.33%
  NUCLEATED RED BLOOD CELLS: 0 /100WBC
  PLATELET COUNT: 1089.33 x10E3/uL
  ALANINE AMINOTRANSFERASE: 70.67 u/L
  ALBUMIN: 4.17 G/DL
  ALKALINE PHOSPHATASE: 375.33 u/L
  ASPARTATE AMINOTRANSFERASE: 108 u/L
  BLOOD UREA NITROGEN: 15.67 mg/dL
  CARBON DIOXIDE: 28.33 mmol/L
  CHLORIDE: 103.33 MEQ/L
  CHOLESTEROL: 83 mg/dL
  CREATINE PHOSPHOKINASE: 435 u/L
  CREATININE: 0.25 mg/dL
  GLUCOSE: 145.33 mg/dL
  LACTATE DEHYDROGENASE: 607.67 u/L
  LIPASE: 12 u/L
  PHOSPHORUS: 12.1 mg/dL
  POTASSIUM: 6.48 MEQ/L
  SODIUM: 142.47 MEQ/L
  TOTAL BILIRUBIN: 0.17 mg/dL
  TOTAL PROTEIN: 5.87 G/DL
  URIC ACID: 1.4 mg/dL
[3]
  ABSOLUTE BASOPHIL: 0 CELLS/uL
  ABSOLUTE EOSINOPHIL: 0 CELLS/uL
  ABSOLUTE LYMPHOCYTE: 14510.33 CELLS/uL
  ABSOLUTE MONOCYTE: 51 CELLS/uL
  ABSOLUTE SEGMENTED NEUTROPHIL: 705.33 CELLS/uL
  BASOPHIL: 0%
  EOSINOPHIL: 0%
  ERYTHROCYTE COUNT: 5.55 x10E6/uL
  HEMATOCRIT: 33.37%
  HEMOGLOBIN: 13.47 G/DL
  LEUKOCYTE COUNT: 15.27 x10E3/uL
  LYMPHOCYTE: 95%
  MEAN CORPUSCULAR HEMOGLOBIN: 24.3 pg
  MEAN CORPUSCULAR HEMOGLOBIN CONCENTRATION: 40.33 G/DL
  MEAN CORPUSCULAR VOLUME: 60.17 fL
  MONOCYTE: 0.33%
  NEUTROPHIL: 4.67%
  NUCLEATED RED BLOOD CELLS: 0 /100WBC
  PLATELET COUNT: 1036.67 x10E3/uL
  ALANINE AMINOTRANSFERASE: 50.33 u/L
  ALBUMIN: 3.93 G/DL
  ALKALINE PHOSPHATASE: 347.67 u/L
  ASPARTATE AMINOTRANSFERASE: 100.33 u/L
  BLOOD UREA NITROGEN: 18 mg/dL
  CARBON DIOXIDE: 26 mmol/L
  CHLORIDE: 104 MEQ/L
  CHOLESTEROL: 57.67 mg/dL
  CREATINE PHOSPHOKINASE: 706.67 u/L
  CREATININE: 0.15 mg/dL
  GLUCOSE: 145.67 mg/dL
  LACTATE DEHYDROGENASE: 811.33 u/L
  LIPASE: 9.67 u/L
  PHOSPHORUS: 10.97 mg/dL
  POTASSIUM: 6.19 MEQ/L
  SODIUM: 144.13 MEQ/L
  TOTAL BILIRUBIN: 0.2 mg/dL
  TOTAL PROTEIN: 5.53 G/DL
  URIC ACID: 1.17 mg/dL
